From patent US9896435B2, “N-pyrrolidinyl,N′-pyrazolyl-urea, thiourea, guanidine and cyanoguanidine compounds as TrkA kinase inhibitors” (Array BioPharma Inc., priority 2012, dated 2018)

What was measured:
[1] = target: His-tagged recombinant human TrkA (Homo sapiens (Human), UniProt P04629); test: TrkA LanthaScreen Eu Kinase Binding Assay; details: averaged IC50; LanthaScreen binding assay of Example A; read-out: TrkA Enzyme IC50
Description: TrkA binding activity was determined in a TrkA LanthaScreen™ Eu Kinase Binding Assay. 5 nM His-tagged recombinant human TrkA (6HIS tagged cytoplasmic domain from Invitrogen, Catalog No. PV3144) was incubated with 4 nM Alexa-Fluor® Tracer 236 (Invitrogen Cat. No. PV5592), 2 nM biotinylated anti-His (Invitrogen Cat. No. PV6090), and 2 nM europium-labeled Streptavidin (Invitrogen Cat. No. PV5899), in buffer (25 mM MOPS, pH 7.5, 5 mM MgCl2, 0.005% Triton X-100). Three fold serial dilutions of compounds of the invention in DMSO were added to a final percentage of 2% DMSO. After 60-minute incubation at 22° C., the reaction was measured using the EnVision mutlimode plate reader (PerkinElmer) via TR-FRET dual wavelength detection at […]. The percent of control was calculated using a ratiometric emission factor. The IC50 values were determined by fitting a four parameter model to the percent of control data.
Table A provides averaged IC50 values for compounds of the invention when tested in the assay of Example A, where A represents an averaged IC50 value<100 nM.

[2] = target: Abl2 (Homo sapiens (Human), UniProt P42684); test: KinaseProfiler off-target kinase profiling; assay type: biochemical; details: 10 μM, ATP near Km
Sequence of Abl2 (P42684 whole entry): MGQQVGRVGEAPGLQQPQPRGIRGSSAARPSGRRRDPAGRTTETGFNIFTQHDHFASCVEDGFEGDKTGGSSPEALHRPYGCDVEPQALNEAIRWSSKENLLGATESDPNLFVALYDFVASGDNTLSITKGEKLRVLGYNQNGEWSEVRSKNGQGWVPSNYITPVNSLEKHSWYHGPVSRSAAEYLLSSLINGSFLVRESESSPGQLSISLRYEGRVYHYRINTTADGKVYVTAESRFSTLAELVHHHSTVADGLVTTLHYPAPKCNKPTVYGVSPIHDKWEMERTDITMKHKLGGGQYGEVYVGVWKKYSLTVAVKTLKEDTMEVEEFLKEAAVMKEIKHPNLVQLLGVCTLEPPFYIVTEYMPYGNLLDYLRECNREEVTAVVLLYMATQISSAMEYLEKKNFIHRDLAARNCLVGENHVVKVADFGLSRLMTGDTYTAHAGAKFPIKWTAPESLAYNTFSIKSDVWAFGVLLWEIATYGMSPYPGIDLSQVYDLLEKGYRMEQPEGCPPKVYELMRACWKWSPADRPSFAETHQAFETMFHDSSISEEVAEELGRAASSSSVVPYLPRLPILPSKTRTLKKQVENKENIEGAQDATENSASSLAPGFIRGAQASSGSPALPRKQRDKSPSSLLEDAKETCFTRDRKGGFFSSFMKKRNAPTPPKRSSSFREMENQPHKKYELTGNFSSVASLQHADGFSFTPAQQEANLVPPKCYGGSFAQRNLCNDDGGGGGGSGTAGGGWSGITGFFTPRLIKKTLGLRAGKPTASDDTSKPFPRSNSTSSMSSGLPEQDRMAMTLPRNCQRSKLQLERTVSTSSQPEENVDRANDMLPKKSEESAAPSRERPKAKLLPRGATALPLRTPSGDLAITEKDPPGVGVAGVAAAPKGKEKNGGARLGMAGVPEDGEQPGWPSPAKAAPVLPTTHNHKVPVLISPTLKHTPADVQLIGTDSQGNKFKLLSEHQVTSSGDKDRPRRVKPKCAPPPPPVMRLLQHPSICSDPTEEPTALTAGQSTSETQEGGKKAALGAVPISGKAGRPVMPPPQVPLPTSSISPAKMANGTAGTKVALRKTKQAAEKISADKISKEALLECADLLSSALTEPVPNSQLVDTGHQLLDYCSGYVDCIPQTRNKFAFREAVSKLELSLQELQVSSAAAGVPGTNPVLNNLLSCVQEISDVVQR
Summary of the method: (§1)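 Single-concentration screen: 10 μM compound, ATP set close to the Km of each individual kinase. Output is percent of control averaged over duplicate wells.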

[3] = target: IR Activated (Homo sapiens (Human), UniProt P06213); test: KinaseProfiler off-target kinase profiling; assay type: biochemical; details: 10 μM, ATP near Km
Summary of the method: as §1

[4] = target: EphA7 (Homo sapiens (Human), UniProt Q15375); test: KinaseProfiler off-target kinase profiling; assay type: biochemical; details: 10 μM, ATP near Km
Sequence of EphA7 (Q15375 28-998): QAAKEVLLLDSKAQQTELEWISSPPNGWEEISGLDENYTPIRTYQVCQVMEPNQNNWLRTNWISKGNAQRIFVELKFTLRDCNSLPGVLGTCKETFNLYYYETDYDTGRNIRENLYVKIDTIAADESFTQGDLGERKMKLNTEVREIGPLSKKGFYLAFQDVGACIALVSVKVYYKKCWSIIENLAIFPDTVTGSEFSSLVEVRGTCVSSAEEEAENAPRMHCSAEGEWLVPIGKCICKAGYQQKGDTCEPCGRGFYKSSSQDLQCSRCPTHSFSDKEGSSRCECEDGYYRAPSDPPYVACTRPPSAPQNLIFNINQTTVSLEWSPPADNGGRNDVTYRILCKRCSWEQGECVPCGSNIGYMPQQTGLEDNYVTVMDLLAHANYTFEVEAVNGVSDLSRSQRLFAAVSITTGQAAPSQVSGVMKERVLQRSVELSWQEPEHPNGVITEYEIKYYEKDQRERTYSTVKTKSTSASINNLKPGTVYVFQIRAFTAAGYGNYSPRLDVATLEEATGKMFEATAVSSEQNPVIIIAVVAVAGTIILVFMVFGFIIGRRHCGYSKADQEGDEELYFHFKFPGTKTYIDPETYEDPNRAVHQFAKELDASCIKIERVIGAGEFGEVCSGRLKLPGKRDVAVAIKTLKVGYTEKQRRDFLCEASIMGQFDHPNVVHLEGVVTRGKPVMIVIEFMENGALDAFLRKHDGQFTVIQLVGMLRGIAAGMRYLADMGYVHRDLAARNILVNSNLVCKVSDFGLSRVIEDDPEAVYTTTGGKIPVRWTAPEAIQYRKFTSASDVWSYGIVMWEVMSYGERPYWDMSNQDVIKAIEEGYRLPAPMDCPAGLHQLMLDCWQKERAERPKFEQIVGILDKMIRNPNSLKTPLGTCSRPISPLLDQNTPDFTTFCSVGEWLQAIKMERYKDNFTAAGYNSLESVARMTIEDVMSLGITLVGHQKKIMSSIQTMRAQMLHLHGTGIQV
Summary of the method: as §1

[5] = target: PTK5 (Homo sapiens (Human), UniProt P42685); test: KinaseProfiler off-target kinase profiling; assay type: biochemical; details: 10 μM, ATP near Km
Summary of the method: as §1

[6] = target: KDR (Homo sapiens (Human), UniProt P35968); test: KinaseProfiler off-target kinase profiling; assay type: biochemical; details: 10 μM, ATP near Km
Summary of the method: as §1

[7] = target: Flt1 (Homo sapiens (Human), UniProt P17948); test: KinaseProfiler off-target kinase profiling; assay type: biochemical; details: 10 μM, ATP near Km
Summary of the method: as §1

[8] = target: TLK2 (Homo sapiens (Human), UniProt Q86UE8); test: KinaseProfiler off-target kinase profiling; assay type: biochemical; details: 10 μM, ATP near Km
Summary of the method: as §1

[9] = target: CDK7/cyclinH/MAT1 (Homo sapiens (Human), UniProt P50613); test: KinaseProfiler off-target kinase profiling; assay type: biochemical; details: 10 μM, ATP near Km
Summary of the method: as §1

[10] = target: AMPK(A1/B1/G1) (Homo sapiens (Human), UniProt Q13131); test: KinaseProfiler off-target kinase profiling; assay type: biochemical; details: 10 μM, ATP near Km
Summary of the method: as §1

[11] = target: Syk (Homo sapiens (Human), UniProt P43405); test: KinaseProfiler off-target kinase profiling; assay type: biochemical; details: 10 μM, ATP near Km
Summary of the method: as §1

[12] = target: CAMK1 (Homo sapiens (Human), UniProt Q14012); test: KinaseProfiler off-target kinase profiling; assay type: biochemical; details: 10 μM, ATP near Km
Summary of the method: as §1

[13] = target: DMPK (Homo sapiens (Human), UniProt Q09013); test: KinaseProfiler off-target kinase profiling; assay type: biochemical; details: 10 μM, ATP near Km
Sequence of DMPK (Q09013 whole entry): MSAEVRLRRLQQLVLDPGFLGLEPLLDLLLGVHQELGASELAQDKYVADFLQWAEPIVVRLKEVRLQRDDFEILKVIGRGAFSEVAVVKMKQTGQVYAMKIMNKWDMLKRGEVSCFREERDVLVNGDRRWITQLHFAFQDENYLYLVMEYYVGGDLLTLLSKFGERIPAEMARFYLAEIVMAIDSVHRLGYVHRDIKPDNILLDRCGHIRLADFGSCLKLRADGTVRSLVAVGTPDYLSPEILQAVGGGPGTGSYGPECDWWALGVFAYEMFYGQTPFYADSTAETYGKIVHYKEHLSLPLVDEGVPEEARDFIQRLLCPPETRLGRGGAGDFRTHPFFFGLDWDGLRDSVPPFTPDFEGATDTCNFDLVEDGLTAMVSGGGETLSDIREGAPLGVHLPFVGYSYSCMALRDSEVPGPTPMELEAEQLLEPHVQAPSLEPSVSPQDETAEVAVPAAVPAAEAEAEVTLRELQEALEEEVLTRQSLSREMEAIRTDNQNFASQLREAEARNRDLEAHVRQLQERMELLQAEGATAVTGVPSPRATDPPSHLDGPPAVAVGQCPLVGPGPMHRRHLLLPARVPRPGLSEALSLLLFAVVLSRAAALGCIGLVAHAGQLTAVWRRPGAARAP
Summary of the method: as §1

[14] = target: Txk (Homo sapiens (Human), UniProt P42681); test: KinaseProfiler off-target kinase profiling; assay type: biochemical; details: 10 μM, ATP near Km
Sequence of Txk (P42681 whole entry): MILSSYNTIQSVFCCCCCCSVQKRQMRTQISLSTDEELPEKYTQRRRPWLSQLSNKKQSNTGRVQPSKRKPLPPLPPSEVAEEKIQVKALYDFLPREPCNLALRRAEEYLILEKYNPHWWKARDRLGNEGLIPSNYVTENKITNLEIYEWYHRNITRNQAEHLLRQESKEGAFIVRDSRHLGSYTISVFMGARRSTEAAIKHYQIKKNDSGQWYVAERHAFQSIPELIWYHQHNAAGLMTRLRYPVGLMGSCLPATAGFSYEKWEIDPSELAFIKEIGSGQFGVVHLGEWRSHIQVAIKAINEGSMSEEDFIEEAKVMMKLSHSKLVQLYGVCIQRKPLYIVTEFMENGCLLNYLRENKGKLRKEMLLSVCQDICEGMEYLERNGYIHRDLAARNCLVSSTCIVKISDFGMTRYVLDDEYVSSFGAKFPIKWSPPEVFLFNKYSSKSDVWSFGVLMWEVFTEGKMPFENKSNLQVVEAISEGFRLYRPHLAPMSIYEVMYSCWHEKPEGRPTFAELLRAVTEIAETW
Summary of the method: as §1

[15] = target: BTK (Homo sapiens (Human), UniProt Q06187); test: KinaseProfiler off-target kinase profiling; assay type: biochemical; details: 10 μM, ATP near Km
Summary of the method: as §1

[16] = target: Flt3 (Homo sapiens (Human), UniProt P36888); test: KinaseProfiler off-target kinase profiling; assay type: biochemical; details: 10 μM, ATP near Km
Summary of the method: as §1

[17] = target: JAK3 (Homo sapiens (Human), UniProt P52333); test: KinaseProfiler off-target kinase profiling; assay type: biochemical; details: 10 μM, ATP near Km
Summary of the method: as §1

[18] = target: DAPK3 (Homo sapiens (Human), UniProt O43293); test: KinaseProfiler off-target kinase profiling; assay type: biochemical; details: 10 μM, ATP near Km
Summary of the method: as §1

[19] = target: PKCeta (Homo sapiens (Human), UniProt P24723); test: KinaseProfiler off-target kinase profiling; assay type: biochemical; details: 10 μM, ATP near Km
Summary of the method: as §1

[20] = target: EphB4 (Homo sapiens (Human), UniProt P54760); test: KinaseProfiler off-target kinase profiling; assay type: biochemical; details: 10 μM, ATP near Km
Summary of the method: as §1

[21] = target: MRCKbeta (Homo sapiens (Human), UniProt Q9Y5S2); test: KinaseProfiler off-target kinase profiling; assay type: biochemical; details: 10 μM, ATP near Km
Summary of the method: as §1

[22] = target: TNK2 (Homo sapiens (Human), UniProt Q07912); test: KinaseProfiler off-target kinase profiling; assay type: biochemical; details: 10 μM, ATP near Km
Sequence of TNK2 (Q07912 whole entry): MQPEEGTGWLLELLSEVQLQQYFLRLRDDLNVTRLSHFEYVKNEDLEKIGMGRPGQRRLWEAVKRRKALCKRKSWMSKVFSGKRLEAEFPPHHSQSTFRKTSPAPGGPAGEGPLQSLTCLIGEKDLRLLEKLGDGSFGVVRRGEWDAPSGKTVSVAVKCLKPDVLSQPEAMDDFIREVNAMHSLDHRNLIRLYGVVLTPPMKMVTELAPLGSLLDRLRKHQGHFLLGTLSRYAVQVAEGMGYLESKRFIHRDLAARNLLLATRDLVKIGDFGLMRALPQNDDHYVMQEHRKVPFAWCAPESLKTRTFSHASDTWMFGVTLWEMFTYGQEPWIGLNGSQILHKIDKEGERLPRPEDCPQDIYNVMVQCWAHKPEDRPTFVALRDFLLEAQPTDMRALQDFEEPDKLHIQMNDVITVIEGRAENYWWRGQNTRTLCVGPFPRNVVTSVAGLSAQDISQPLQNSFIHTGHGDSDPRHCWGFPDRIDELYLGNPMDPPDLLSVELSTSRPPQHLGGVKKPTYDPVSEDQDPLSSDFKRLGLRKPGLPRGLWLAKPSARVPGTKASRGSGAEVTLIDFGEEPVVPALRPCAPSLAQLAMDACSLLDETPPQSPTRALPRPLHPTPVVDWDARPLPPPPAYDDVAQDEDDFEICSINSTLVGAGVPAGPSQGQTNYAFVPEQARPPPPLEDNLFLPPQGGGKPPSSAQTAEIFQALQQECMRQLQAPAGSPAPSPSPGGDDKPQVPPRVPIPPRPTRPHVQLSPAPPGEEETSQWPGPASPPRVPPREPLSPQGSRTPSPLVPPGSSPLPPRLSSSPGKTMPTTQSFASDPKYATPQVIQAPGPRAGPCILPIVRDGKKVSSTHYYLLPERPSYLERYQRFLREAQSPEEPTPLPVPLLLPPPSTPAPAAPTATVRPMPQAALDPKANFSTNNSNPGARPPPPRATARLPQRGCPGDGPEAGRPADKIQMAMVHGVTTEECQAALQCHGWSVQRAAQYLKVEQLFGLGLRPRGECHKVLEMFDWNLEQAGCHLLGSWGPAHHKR
Summary of the method: as §1

[23] = target: EphA2 (Homo sapiens (Human), UniProt P29317); test: KinaseProfiler off-target kinase profiling; assay type: biochemical; details: 10 μM, ATP near Km
Summary of the method: as §1

[24] = target: PKD1 (Homo sapiens (Human), UniProt Q15139); test: KinaseProfiler off-target kinase profiling; assay type: biochemical; details: 10 μM, ATP near Km
Summary of the method: as §1

[25] = target: FAK2 (Homo sapiens (Human), UniProt Q14289); test: KinaseProfiler off-target kinase profiling; assay type: biochemical; details: 10 μM, ATP near Km
Summary of the method: as §1

[26] = target: Yes (Homo sapiens (Human), UniProt P07947); test: KinaseProfiler off-target kinase profiling; assay type: biochemical; details: 10 μM, ATP near Km
Summary of the method: as §1

[27] = target: AURKA (Homo sapiens (Human), UniProt O14965); test: KinaseProfiler off-target kinase profiling; assay type: biochemical; details: 10 μM, ATP near Km
Summary of the method: as §1

[28] = target: CDK5/p35 (Homo sapiens (Human), UniProt Q00535); test: KinaseProfiler off-target kinase profiling; assay type: biochemical; details: 10 μM, ATP near Km
Sequence of CDK5/p35 (Q00535 whole entry): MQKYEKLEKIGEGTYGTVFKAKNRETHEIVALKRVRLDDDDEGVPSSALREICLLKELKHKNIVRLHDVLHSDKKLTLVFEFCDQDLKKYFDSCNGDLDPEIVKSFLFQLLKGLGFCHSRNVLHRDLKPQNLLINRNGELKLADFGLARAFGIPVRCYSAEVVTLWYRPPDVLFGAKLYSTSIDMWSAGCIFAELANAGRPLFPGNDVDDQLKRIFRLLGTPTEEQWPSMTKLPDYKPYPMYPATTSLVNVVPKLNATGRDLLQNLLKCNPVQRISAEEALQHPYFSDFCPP
Sequence of CDK5/p35 (Q15078 2-307 partner): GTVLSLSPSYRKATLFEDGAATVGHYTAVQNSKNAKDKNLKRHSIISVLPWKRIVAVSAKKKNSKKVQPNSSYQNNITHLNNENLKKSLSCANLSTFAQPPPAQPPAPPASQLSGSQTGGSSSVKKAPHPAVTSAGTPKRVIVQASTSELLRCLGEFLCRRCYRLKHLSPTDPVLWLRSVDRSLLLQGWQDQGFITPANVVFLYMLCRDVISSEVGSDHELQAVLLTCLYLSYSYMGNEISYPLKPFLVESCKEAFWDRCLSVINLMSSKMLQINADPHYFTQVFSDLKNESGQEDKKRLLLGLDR
Summary of the method: as §1

[29] = test system: off-target kinases in the full kinase panel; test: KinaseProfiler full kinase panel, overall result; assay type: biochemical; details: for selectivity for inhibiting TrkA versus other kinases in the panel: 10 μM, panel of about 230 kinases; for activity against off-target kinases: concentration of 10 μM
Description: Two representative compounds (Example 2, 14) of the invention were tested for off-target kinase activity at a concentration of 10 μM by Millipore, Inc. in their KinaseProfiler™ service against all the kinases available in their full kinase panel. These compounds were run in duplicate at a concentration of ATP near the Km for each individual kinase according to Millipore's specifications. The results are shown in Table B. Data are reported as percent of control (POC) and are the average of the two replicates.
Such a drug profile would represent a safer approach to treating pain, inflammation, cancer and certain skin diseases than has been previously reported.

COCCN1C[C@@H](NC(=O)Nc2c(C)c(-c3ccnc(C)c3)nn2-c2ccccc2)[C@H](c2ccc(F)c(F)c2)C1 [Example 2, 1-((3S,4R)-4-(3,4-difluorophenyl)-1-(2-methoxyethyl)pyrrolidin-3-yl)-3-(4-methyl-3-(2-methylpyridin-4-yl)-1-phenyl-1H-pyrazol-5-yl)urea]
IC50 [1]: < 100 nM
Avg POC [2]: 101 POC
Avg POC [3]: 106.5 POC
Avg POC [4]: 101.5 POC
Avg POC [5]: 108 POC
Avg POC [6]: 116.5 POC
Avg POC [7]: 86 POC
Avg POC [8]: 92.5 POC
Avg POC [9]: 88 POC
Avg POC [10]: 118 POC
Avg POC [11]: 86 POC
Avg POC [12]: 107 POC
Avg POC [13]: 98.5 POC
Avg POC [14]: 99.5 POC
Avg POC [15]: 109 POC
Avg POC [16]: 119.5 POC
Avg POC [17]: 103.5 POC
Avg POC [18]: 107 POC
Avg POC [19]: 108.5 POC
Avg POC [20]: 104 POC
Avg POC [21]: 105 POC
Avg POC [22]: 109.5 POC
Avg POC [23]: 110.5 POC
Avg POC [24]: 96 POC
Avg POC [25]: 99.5 POC
Avg POC [26]: 104 POC
Avg POC [27]: 116 POC
Avg POC [28]: 113 POC
selectivity for inhibiting TrkA versus other kinases in the panel [29]: remarkable and unexpected selectivity
activity against off-target kinases [29]: largely inactive

COCCN1C[C@@H](NC(=O)Nc2c(C)c(-c3cnc(C)nc3)nn2-c2ccccc2)[C@H](c2cc(F)cc(F)c2)C1 [Example 14, 1-((3S,4R)-4-(3,5-difluorophenyl)-1-(2-methoxyethyl)pyrrolidin-3-yl)-3-(4-methyl-3-(2-methylpyrimidin-5-yl)-1-phenyl-1H-pyrazol-5-yl)urea]
IC50 [1]: < 100 nM
Avg POC [2]: 95.5 POC
Avg POC [3]: 100.5 POC
Avg POC [4]: 106.5 POC
Avg POC [5]: 91 POC
Avg POC [6]: 99 POC
Avg POC [7]: 81 POC
Avg POC [8]: 93.5 POC
Avg POC [9]: 97.5 POC
Avg POC [10]: 106.5 POC
Avg POC [11]: 88 POC
Avg POC [12]: 103.5 POC
Avg POC [13]: 105 POC
Avg POC [14]: 98.5 POC
Avg POC [15]: 97.5 POC
Avg POC [16]: 90 POC
Avg POC [17]: 101 POC
Avg POC [18]: 105.5 POC
Avg POC [19]: 100 POC
Avg POC [20]: 96 POC
Avg POC [21]: 98.5 POC
Avg POC [22]: 97.5 POC
Avg POC [23]: 96 POC
Avg POC [24]: 97 POC
Avg POC [25]: 107 POC
Avg POC [26]: 55.5 POC
Avg POC [27]: 106 POC
Avg POC [28]: 115.5 POC
selectivity for inhibiting TrkA versus other kinases in the panel [29]: remarkable and unexpected selectivity
activity against off-target kinases [29]: largely inactive
